According to article PMC7728077, “Double-Headed Cationic Lipopeptides: An Emerging Class of Antimicrobials” (International Journal of Molecular Sciences, 2020):
≈ marks a conversion by molar mass, not a printed value. Square brackets hold non-standard residues; d marks the D form. Peptide text beside a SMILES is read from it. * marks the point of attachment. Palmitoyl = CCCCCCCCCCCCCCCC(=O)*; Orn = NCCC[C@H](N)C(=O)O; Dab = NCC[C@H](N)C(=O)O; Dap = NC[C@H](N)C(=O)O

Legend:
[1] = tested on: MCF-7 breast cancer cell line; format: cell-based, human
[2] = tested on: HaCaT human keratinocyte cell line; format: cell-based
Experimental: (§1) Cytotoxicity was determined towards immortalized human HaCaT keratinocytes (DKFZ, Heidelberg, Germany), transformed human fibroblast cell line 46BR.1N (ECACC), as well as the human melanoma (A375), human lung cancer (A549), human colon cancer (HCT-116), human colon adenocarcinoma (HT-29), and human prostate cancer (LNCaP) cell lines. Keratinocytes and fibroblast cell lines were maintained in a humidified atmosphere with 5% CO2 at 37 °C in a Dulbecco’s modified Eagle’s medium (DMEM) (Sigma-Aldrich, Steinheim, Germany), which contained 4500 mg/L of glucose, 584 mg/L of L-glutamine, sodium pyruvate, and sodium bicarbonate. Additionally, the medium was supplemented with 10% of fetal bovine serum (FBS) (Sigma-Aldrich, Steinheim, Germany), 100 U/mL of penicillin, and 100 µg/mL of streptomycin (Sigma-Aldrich, Steinheim, Germany). The cells were grown in culture dishes (BD, Franklin Lakes, NJ, USA) and the medium was changed every 2 days. Afterwards, the fibroblasts and keratinocytes were harvested using a standard trypsin-EDTA solution, centrifuged, suspended in a medium supplemented with 10% FBS and seeded at a density of 5500–6000 cells per well into 96-well plates. After 24 h, the medium was exchanged with a serum- and antibiotic-free DMEM. The next day, serially diluted solutions of the lipopeptides prepared in a fresh FBS- and antibiotic-free medium were added to the wells. The potential cytotoxic effect of the compounds was analyzed over the concentration range of 1–25 µg/mL. After addition of the lipopeptides, cells were incubated for the next 24 h. At the end of the experiment, the cells were treated with 20 µL of MTT (5 mg/mL in PBS). After 3 h at 37 °C under 5% CO2, the medium was discarded and replaced by 6 mM HCl in isopropanol. As soon as the purple crystals of formazan were completely solubilized, absorbance was read at 570 nm with a plate reader. The optical density of the wells without the tested compounds were regarded as the positive control. The MTT assay was performed in triplicate for each cell line.
(§2) Determination of the half-maximum inhibitory concentrations (IC50) was done using GraphPad Prism 5 software (San Diego, CA, USA) based on the dose-response curves. The logarithm of the different concentrations of compounds was plotted against the percentage of inhibition in cell viability as compared with control probes, treated as 100%.

[3] = tested on: 46BR.1N human skin fibroblasts cell line; format: cell-based
Experimental: as §1, §2

[4] = tested on: Candida albicans ATCC 10231; format: cell-based; settings: ATCC 10231, 18 h
Source text: (§3) Fmoc-Lys(Boc)-OH and the coupling reagents were purchased from GL Biochem (Shanghai, China). Palmitoyl Fmoc-amino acids: Fmoc-Lys(C16)-OH, Fmoc-Orn(C16)-OH, Fmoc-Dab(C16)-OH, and Fmoc-Dap(C16)-OH were acquired from Iris Biotech GmbH (Marktredwitz, Germany). The resin and solvents were purchases from Rapp Polymere (Tübingen, Germany), Merck (Darmstadt, Germany), and Avantor Performance Materials (Gliwice, Poland), respectively. The phospholipids, 1,2-dipalmitoyl-sn-glycero-3-phosphocholine (DPPC), 1,2-dipalmitoyl-sn-glycero-3-[phospho-rac-(1-glycerol)] (DPPG), 1-palmitoyl-2-oleoyl-glycero-3-phosphocholine (POPC) and 1-palmitoyl-2-oleoyl-sn-glycero-3-[phospho-rac-(1-glycerol)] (POPG), were purchased from Avanti Polar Lipids (Alabaster, AL, USA). LPS E. coli 055:B5 and phosphate buffered saline (PBS) were from Sigma-Aldrich (Steinheim, Germany). The Mueller Hinton broth was bought from BIOCORP (Warsaw, Poland) and the RPMI-1640 medium from Sigma-Aldrich (Steinheim, Germany). LIVE/DEAD™ BacLight™ Bacterial Viability Kit was obtained from Thermo Fisher Scientific (Waltham, MA, USA). Bacterial strains (Escherichia coli ATCC 25922, Pseudomonas aeruginosa ATCC 9027, Staphylococcus aureus ATCC 25923, Staphylococcus epidermidis ATCC 1922) and the fungal strain (Candida albicans ATCC 10231) were obtained from the Polish Collection of Microorganisms, Polish Academy of Science, Institute of Immunology and Experimental Therapy, Wroclaw, Poland.
(§4) Antimicrobial activity of the lipopeptides was determined according to the broth microdilution guidelines recommended by the Clinical and Laboratory Standards Institute (CLSI). Minimum inhibitory concentrations (MICs) were assumed as the lowest concentration of the peptide solution, at which the visible growth of microorganisms was inhibited. MIC values of lipopeptides against bacteria were evaluated in the Mueller–Hinton broth and against fungus in the RPMI-1640 medium. Initial inoculums of bacteria and fungus (with concentrations of 5 × 10^5 CFU/mL and 2 × 10^3 CFU/mL, respectively) were exposed to increasing concentrations of lipopeptides solutions over the range of 1–512 µg/mL. […] The 96-well plates filled with appropriate inoculums and the tested compounds were incubated for 18 h at 37 °C. Presented values are the mean of the results obtained in three independent experiments.

[5] = tested on: Staphylococcus aureus ATCC 25923; format: cell-based; settings: ATCC 25923, 18 h
Source text: as §3, §4

[6] = tested on: Pseudomonas aeruginosa ATCC 9027; format: cell-based; settings: ATCC 9027, 18 h
Source text: as §3, §4

[7] = tested on: Staphylococcus epidermidis ATCC 1922; format: cell-based; settings: ATCC 1922, 18 h
Source text: as §3, §4

[8] = tested on: Escherichia coli ATCC 25922; format: cell-based; settings: ATCC 25922, 18 h
Source text: as §3, §4

[9] = tested on: HT-29 human colorectal adenocarcinoma; format: cell-based
Experimental: (§5) In the case of evaluation of cytotoxicity towards different types of the cancer cell lines (A375, A549, HCT-116, HT-29, and LNCaP, respective cells were seeded in 96-well plates (4500 cell/well) in the RPMI-1640 medium supplemented with 5% FBS without antibiotics and incubated for 24 h before stimulation with the lipopeptides. The next day, the cells were exposed to the effect of the serially diluted compounds added at concentrations ranging from 1 to 25 µg/mL for a period of 48 h. After the treatment, cells viability was evaluated by means of MTT assays, according to standard protocol, as just described. The experiment was repeated three times for each cell line.
as §2

[10] = tested on: HCT-116 human colorectal carcinoma; format: cell-based
Experimental: as §5, §2

[11] = tested on: A549 human epithelial lung carcinoma; format: cell-based
Experimental: as §5, §2

[12] = tested on: A375 human malignant melanoma cell line; format: cell-based
Experimental: as §5, §2

[13] = tested on: LNCaP human prostate carcinoma; format: cell-based
Experimental: as §5, §2

[14] = Analytical RP-HPLC retention time as measure of hydrophobicity; format: physicochemical; settings: Jupiter 4 µ Proteo 90 Å 250 x 4.60 mm, linear gradient 15-90% B in A in 30 min, 1 ml/min, A 0.1% aqueous TFA, B 80% acetonitrile in water with 0.1% TFA
Experimental: The lipopeptides were purified in a Waters RP-HPLC preparative system (Jupiter 4 µ Proteo column, 90 Å, 250 × 10 mm) with the linear gradient of solution B in A from 30% to 60% (A, 0.1% solution of TFA in water and B, 80% solution of ACN in water containing 0.1% of TFA) in 40 min with a flow rate of 5 mL/min. Final purity of the analogues (at least 97%) was determined using an analytical RP-HPLC Shimadzu system (Jupiter 4 µ Proteo column, 90 Å, 250 × 4.60 mm) with the linear gradient of solution B in A from 15% to 90% in 30 min with a flow rate of 1 mL/min. Identity of lipopeptides was confirmed by MALDI-TOF mass spectrometry. Analytical data of the synthesized analogues are presented in Table S1 (Supplementary Materials). ^a linear gradient 15-90% of B in A for 30 min, flow rate 1 ml/min, RP-HPLC Shimadzu system, column: Jupiter 4 µ Proteo, 90 Å, 250 x 4.60 mm; A – 0.1% aqueous TFA solution, B – 80% solution of acetonitrile in water with 0.1% of TFA; ^b molecular masses were determined using MALDI-TOF mass spectrometer.

[15] = literature value used for comparison; cited from earlier work
Source text: As expected, the critical aggregation concentration (CAC) values increased in the homologue series, i.e., Lys, Orn, Dab, and Dap, with a linear relationship of log CAC vs. number of methylene groups in the side chain of palmitoylated residue (Figure S3, Supplementary Materials). […] The modification of the acyl chain position separated the posi ...

Compound: CCCCCCCCCCCCCCCC(=O)NC[C@H](NC(=O)[C@@H](N)CCCCN)C(=O)N[C@@H](CCCCN)C(N)=O [K(DapC16)K-NH2] (H-Lys-[Dap](Palmitoyl)-Lys-NH2)
- IC50, MCF-7 (48h) [1]: 20.11 ± 2.51 µg/mL (≈ 33.6 µM)
- IC50, HaCaT (24h) [2]: 7.25 ± 2.18 µg/mL (≈ 12.1 µM)
- IC50, 46BR.1N (24h) [3]: 8.68 ± 1.00 µg/mL (≈ 14.5 µM)
- MIC, C. albicans [4]: 16 µg/mL (≈ 26.8 µM)
- MIC, S. aureus [5]: 8 µg/mL (≈ 13.4 µM)
- MIC, P. aeruginosa [6]: 8 µg/mL (≈ 13.4 µM)
- MIC, S. epidermidis [7]: 4 µg/mL (≈ 6.69 µM)
- MIC, E. coli [8]: 8 µg/mL (≈ 13.4 µM)
- IC50, HT-29 (48h) [9]: 20.24 ± 0.81 µg/mL (≈ 33.9 µM)
- IC50, HCT-116 (48h) [10]: 14.90 ± 0.30 µg/mL (≈ 24.9 µM)
- IC50, A549 (48h) [11]: >25 µg/mL
- IC50, A375 (48h) [12]: 11.63 ± 0.26 µg/mL (≈ 19.5 µM)
- IC50, LNCaP (48h) [13]: 14.0 ± 0.41 µg/mL (≈ 23.4 µM)

Compound: CCCCCCCCCCCCCCCC(=O)NCCC[C@H](NC(=O)[C@H](CCCCN)NC(=O)[C@@H](N)CCCCN)C(=O)N[C@@H](CCCCN)C(=O)N[C@@H](CCCCN)C(N)=O [KK(OC16)KK-NH2] (H-KK[Orn](Palmitoyl)KK-NH2)
- IC50, MCF-7 (48h) [1]: >25 µg/mL
- IC50, HaCaT (24h) [2]: 16.65 ± 2.29 µg/mL (≈ 18.9 µM)
- IC50, 46BR.1N (24h) [3]: 8.21 ± 1.12 µg/mL (≈ 9.31 µM)
- Retention time (used as measure of hydrophobicity) [14]: 21.328 min
- MIC, C. albicans [4]: 32 µg/mL (≈ 36.3 µM)
- MIC, S. aureus [5]: 8 µg/mL (≈ 9.07 µM)
- MIC, P. aeruginosa [6]: 32 µg/mL (≈ 36.3 µM)
- MIC, S. epidermidis [7]: 4 µg/mL (≈ 4.53 µM)
- MIC, E. coli [8]: 8 µg/mL (≈ 9.07 µM)
- IC50, HT-29 (48h) [9]: 19.36 ± 0.58 µg/mL (≈ 21.9 µM)
- IC50, HCT-116 (48h) [10]: 14.90 ± 0.75 µg/mL (≈ 16.9 µM)
- IC50, A549 (48h) [11]: >25 µg/mL
- IC50, A375 (48h) [12]: >25 µg/mL
- IC50, LNCaP (48h) [13]: >25 µg/mL

Compound: CCCCCCCCCCCCCCCC(=O)NCC[C@H](NC(=O)[C@H](CCCCN)NC(=O)[C@@H](N)CCCCN)C(=O)N[C@@H](CCCCN)C(=O)N[C@@H](CCCCN)C(N)=O [KK(DabC16)KK-NH2] (H-KK[Dab](Palmitoyl)KK-NH2)
- IC50, MCF-7 (48h) [1]: >25 µg/mL
- IC50, HaCaT (24h) [2]: 16.95 ± 1.43 µg/mL (≈ 19.5 µM)
- IC50, 46BR.1N (24h) [3]: 9.45 ± 2.13 µg/mL (≈ 10.9 µM)
- MIC, C. albicans [4]: 32 µg/mL (≈ 36.9 µM)
- MIC, S. aureus [5]: 4 µg/mL (≈ 4.61 µM)
- MIC, P. aeruginosa [6]: 32 µg/mL (≈ 36.9 µM)
- MIC, S. epidermidis [7]: 8 µg/mL (≈ 9.21 µM)
- MIC, E. coli [8]: 8 µg/mL (≈ 9.21 µM)
- IC50, HT-29 (48h) [9]: 20.75 ± 0.42 µg/mL (≈ 23.9 µM)
- IC50, HCT-116 (48h) [10]: 16.74 ± 0.33 µg/mL (≈ 19.3 µM)
- IC50, A549 (48h) [11]: >25 µg/mL
- IC50, A375 (48h) [12]: >25 µg/mL
- IC50, LNCaP (48h) [13]: >25 µg/mL

Compound: C16-KKK-NH2 [Peptide C16-KKK-NH2]
- CAC of N-terminally palmitoylated peptide [15]: 4.8 mM

Compound: CCCCCCCCCCCCCCCC(=O)NC[C@H](NC(=O)[C@H](CCCCN)NC(=O)[C@@H](N)CCCCN)C(=O)N[C@@H](CCCCN)C(=O)N[C@@H](CCCCN)C(N)=O [KK(DapC16)KK-NH2] (H-KK[Dap](Palmitoyl)KK-NH2)
- IC50, MCF-7 (48h) [1]: >25 µg/mL
- IC50, 46BR.1N (24h) [3]: 12.77 ± 1.32 µg/mL (≈ 14.9 µM)
- MIC, C. albicans [4]: 256 µg/mL (≈ 300 µM)
- MIC, S. aureus [5]: 4 µg/mL (≈ 4.68 µM)
- MIC, P. aeruginosa [6]: 32 µg/mL (≈ 37.5 µM)
- MIC, S. epidermidis [7]: 8 µg/mL (≈ 9.37 µM)
- MIC, E. coli [8]: 8 µg/mL (≈ 9.37 µM)
- IC50, HT-29 (48h) [9]: 24.68 ± 0.49 µg/mL (≈ 28.9 µM)
- IC50, HCT-116 (48h) [10]: 23.05 ± 0.92 µg/mL (≈ 27 µM)
- IC50, A549 (48h) [11]: >25 µg/mL
- IC50, A375 (48h) [12]: >25 µg/mL
- IC50, LNCaP (48h) [13]: >25 µg/mL
